Measurements taken from patent US20210315893A1 (Galapagos NV, priority 2017, published 2021).

Experiments:
[1] = molecular target: T1, human GPCR sphingosine 1-phosphate receptor 1 (Homo sapiens, UniProt P21453); assay: S1PR1 selectivity Ca2+ flux assay (antagonist readout); assay type: cell-based; conditions: antagonist readout, CHO cells overexpressing human S1PR1 and Gq, S1P at EC80 (6 nM); read-out: S1P1 EC50 (nM), S1P1 antagonist EC50
T1 construct: host or cells: CHO
Procedure, shortened: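 CHO cells stably overexpressing human S1PR1, starved 1 h in 0.1% FAF BSA medium, then Fluo 8 dye-loaded. Compound added, then after 15 min at 37 °C, S1P-evoked Ca2+ flux recorded. Maximal signal/background ratio normalized to controls as % inhibition; IC50 from four-parameter logistic fit.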

HFL-1 cells [2] = assay: IL-8 production assay (S1P induced IL-8); assay type: cell-based; conditions: Homo sapiens, HFL1; S1P (1 μM) induced IL-8 in HFL-1 cells, starvation medium without HSA; read-out: IL8 EC50
Procedure, shortened: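 HFL-1 human fetal lung fibroblasts were starved in F12K/1% FBS, then given compound for 1 h (10-point, 1/3 dilution, 30 μM top, 0.3% DMSO final). S1P was added at 1 μM final for 16–24 h at 37 °C, and secreted IL-8 in supernatant quantified by ELISA.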

HFL-1 cells [3] = assay: IL8 assay in the presence of Human Serum Albumin; conditions: HFL1, read-out: HSA IL8 EC50
Description: To evaluate the influence of plasma protein binding of S1P as well as compound, the S1P induced IL-8 levelswereevaluatedin presence of Human Serum Albumin (HSA, equivalent to 40% human serum).
Human Fetal Lung cells (HFL-1) are seeded in 96 well plates in growth medium (F12K+10% heat inactivated FBS+1% Pen/strep). […] On day three, compounds are added (10 point serial dilution, 30 μM highest concentration, 1/3 dilution, 0.3% DMSO final) and plates are incubated for 1 h at 37° C., 5% CO2. Subsequently S1P at 5 μM final concentration is added and plates are incubated for 16 to 24 h at 37° C., 5% COafter which the supernatant was collected. IL-8 levels in the supernatant are determined with the IL-8 ELISA of R&D systems.

[4] = tested on: bleomycin induced pulmonary fibrosis in mice; assay: Therapeutic bleomycin induced pulmonary fibrosis 21-day mice model; assay type: in vivo; conditions: 10 mg/kg BID
Description: The aim of the study is to test the efficacy of a test compound at three different doses in a 21-day model of bleomycin induced pulmonary fibrosis in mice.
(§1) This study is carried out on C57BL/6N male mice, supplied by Charles River, Italy, which are acclimatized for at least 5 days in an environment maintained at 22° C., at 55% relative humidity, with 15-20 air changes per h under light cycles of 12 h. Mice pelleted food and water are provided ad libitum.
The solvent for the test solutions is prepared by adding 0.5 g of hydroxyethylcellulose (Natrosol) into 500 mL Aqua distillate (0.1%) under continuous stirring without heating for 5 h on a magnetic stirrer.
Fresh Nintedanib formulation is prepared daily in 0.1% Natrosol formulations to a final concentration of 5 mg/mL. Before dosing, animals are weighed and the Nintedanib amount administered is adjusted accordingly to individual weights corresponding to 10 mL/kg body weight, once daily p.o.,
Finally, test compound solutions are prepared by dissolving the suitable amount of said test compound in PEG 400 (20% of the final volume) then MC 0.5% (80% of the final volume) to reach final concentrations of 1 mg/mL, 0.3 mg/mL and 0.1 mg/mL, thus yielding compound for a doses of 10 mg/kg, 3 mg/kg and 1 mg/kg. […]
(§2) Pulmonary histological changes are assessed using Matsuse modification of Ashcroft score (Ashcroft et al., 1988; Matsuse et al., 1999). […]

[5] = tested on: bleomycin induced pulmonary fibrosis in mice; assay: Prophylactic bleomycin induced pulmonary fibrosis 14-day mice model; assay type: in vivo; conditions: 10 mg/kg BID
Description: The aim of the study is totest the efficacy of atest compound at three different doses ina 14-day model of bleomycin induced pulmonary fibrosis in mice.
as §1, with “[…]” for “C57BL/6N”
The solvent for the test solutions is prepared by adding 0.5 g of hydroxyethylcellulose (Natrosol) into 500 mL Aqua distillate (0.1%) under continuous stirring without heating for 5 h on a magnetic stirrer. Anesthetic solution is prepared by adding 1 mL of Narketan (Narketan 10, Vetoquinol, Bern, Switzerland, 03605877535982) and 0.5 mL of Rompun (Rompun, 2%. Bayer, Leverkusen, Germany) into 9 mL saline. The resulting solution is administered at 10 mL/kg.
Prior to i.n administration, mice are anesthetized i.p. with the anesthetic solution described above.
Fresh pirfenidone formulation is prepared daily in 0.1% Natrosol formulations to a final concentration of 5 mg/mL. […]
as §2

S1PR2 = molecular target: T2, S1PR2 (Homo sapiens, UniProt O95136); assay: S1PR2 binding assay (competition with radioactively labeled S1P, SpA); conditions: membranes from stable cell line over expressing S1PR2, SpA beads; read-out: S1P2 EC50 (nM), S1PR2 binding EC50
T2 construct: expressed in transfected cells
Procedure, shortened: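 Competition with [3H]S1P for membranes from a stable S1PR2-overexpressing cell line, 20 μg/well, captured on PVT-WGA SPA beads, in 20 mM Tris pH 7.5, 10 mM MgCl2, 100 mM NaCl, 0.4% fatty-acid-free BSA, 1 mM Na3VO4. 2 h at room temperature, then centrifugation and scintillation counting.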

[6] = molecular target: T3, human GPCR sphingosine 1-phosphate receptor 5 (Homo sapiens, UniProt Q9H228); assay: S1PR5 selectivity Ca2+ flux assay (antagonist readout); assay type: cell-based; conditions: CHO cells overexpressing human S1PR5 and Gq, agonist at EC80 (20 nM), read-out: S1P5 EC50 (nM), S1P5 antagonist EC50
T3 construct: host or cells: CHO
Procedure, shortened: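 CHO cells stably coexpressing human S1PR5 and Gq were serum-starved, Fluo 8-loaded and preincubated 15 min at 37° C with compound. They were then stimulated at EC80 with an S1PR5-specific agonist, and calcium fluorescence was recorded for 3 min. Peak/baseline ratios were normalized to controls and fitted to a four-parameter IC50 equation.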

[7] = molecular target: T4, human GPCR sphingosine 1-phosphate receptor 2 (Homo sapiens, UniProt O95136); assay: S1PR2 antagonist Ca2+ flux assay; assay type: cell-based; conditions: antagonist mode, CHO-S1PR2 cells, S1P at EC80, Ca2+ fluorescence; read-out: S1P2 EC50 (nM), S1P2 antagonist EC50
T4 construct: host or cells: CHO
Procedure, shortened: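 CHO cells stably expressing human S1PR2, serum-starved 1 h, Fluo8-loaded; compound-evoked Ca2+ fluorescence read 3 min (agonist mode), then after 15 min S1P at EC80 added and read 3 min (antagonist mode). Max/baseline fluorescence ratios normalised to vehicle and S1P EC100 or EC50 controls; EC50 derived.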

T1 sequence (P21453 whole entry): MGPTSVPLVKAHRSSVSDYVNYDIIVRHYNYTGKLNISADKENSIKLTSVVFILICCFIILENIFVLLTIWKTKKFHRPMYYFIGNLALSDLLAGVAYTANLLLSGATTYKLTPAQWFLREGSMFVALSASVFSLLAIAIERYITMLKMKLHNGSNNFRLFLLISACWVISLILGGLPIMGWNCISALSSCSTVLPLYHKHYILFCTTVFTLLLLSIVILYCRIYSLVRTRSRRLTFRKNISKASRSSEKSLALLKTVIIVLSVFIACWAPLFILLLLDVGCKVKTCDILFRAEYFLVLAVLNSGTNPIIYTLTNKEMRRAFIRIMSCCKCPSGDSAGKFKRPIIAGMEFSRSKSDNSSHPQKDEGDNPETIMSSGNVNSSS
T4 sequence (O95136 whole entry): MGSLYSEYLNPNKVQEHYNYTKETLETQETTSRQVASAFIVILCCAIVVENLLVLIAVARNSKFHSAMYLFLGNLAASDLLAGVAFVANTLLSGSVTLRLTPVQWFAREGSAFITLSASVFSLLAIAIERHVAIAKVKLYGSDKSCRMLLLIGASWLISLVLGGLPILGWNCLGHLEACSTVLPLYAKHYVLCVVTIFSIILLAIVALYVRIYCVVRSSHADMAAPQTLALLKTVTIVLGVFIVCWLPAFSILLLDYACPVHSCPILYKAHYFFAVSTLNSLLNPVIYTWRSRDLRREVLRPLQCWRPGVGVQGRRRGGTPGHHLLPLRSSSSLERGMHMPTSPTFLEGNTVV
T2 sequence (O95136 whole entry): as above
T3 sequence (Q9H228 whole entry): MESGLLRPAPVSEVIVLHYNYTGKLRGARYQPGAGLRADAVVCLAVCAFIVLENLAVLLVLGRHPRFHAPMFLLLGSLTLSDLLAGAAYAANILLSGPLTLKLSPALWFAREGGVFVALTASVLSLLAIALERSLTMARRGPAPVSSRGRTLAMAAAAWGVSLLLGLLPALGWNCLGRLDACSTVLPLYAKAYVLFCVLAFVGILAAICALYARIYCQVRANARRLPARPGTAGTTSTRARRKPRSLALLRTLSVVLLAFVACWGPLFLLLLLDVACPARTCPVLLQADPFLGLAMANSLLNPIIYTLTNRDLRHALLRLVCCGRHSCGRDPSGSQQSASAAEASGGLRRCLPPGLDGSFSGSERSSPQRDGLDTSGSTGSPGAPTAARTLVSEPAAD

O=C(O)Cn1nc(Cc2nc3cc(Cl)c(OCC4CC4)cc3[nH]2)c2ccccc2c1=O [Compound 115, 2-[4-[[5-chloro-6-(cyclopropylmethoxy)-1H-benzimidazol-2-yl]methyl]-1-oxo-phthalazin-2-yl]acetic acid]
EC50 [1]: 3620 nM
EC50 (HFL-1 cells [2]): 5.73 nM
EC50 (HFL-1 cells [3]): 51.8 nM
Ashcroft score difference [4]: statistically significant Ashcroft score difference
Ashcroft score difference [5]: statistically significant Ashcroft score difference

CC(C(=O)NS(C)(=O)=O)c1nn(Cc2cn3cc(OCC4CC4)c(Cl)cc3n2)c2ccccc2c1=O (centres unmarked) [compound 15, 2-[1-[[7-chloro-6-(cyclopropyl-methoxy)imidazo-[1,2-a]pyridin-2-yl]methyl]-4-oxo-cinnolin-3-yl]-N-methylsulfonyl-propanamide]
EC50 [1]: ≥ 19800 nM
EC50 (HFL-1 cells [2]): 24.2 nM
EC50 (HFL-1 cells [3]): 343 nM
EC50 (S1PR2): 378 nM
EC50 [6]: 19800 nM
EC50 [7]: 5.57 nM

N#Cc1ccc2c(=O)n(CC(=O)O)nc(Cc3nc4cc(Cl)c(OCC(F)F)cc4[nH]3)c2c1 [compound 23, 2-[4-[[5-chloro-6-(2,2-difluoro-ethoxy)-1H-benzimidazol-2-yl]methyl]-6-cyano-1-oxo-phthalazin-2-yl]acetic acid]
EC50 [1]: ≥ 19800 nM
EC50 (HFL-1 cells [2]): 58.1 nM
EC50 (HFL-1 cells [3]): 293 nM
EC50 (S1PR2): 306 nM
EC50 [6]: 19800 nM
EC50 [7]: 14.6 nM
